Assay results reported in the supplement of paper PMC10307832.

How the values were obtained:
Assay in all cases: relative viability (nuclei count vs DMSO), 5 days (fraction); higher = more cells survive
[1] = system: ABC-1
Summary of the method: (§1)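 Lung cancer cell lines were seeded in 1536-well plates and dosed by pin tool the next day, with either a single drug or a fixed anchor-drug dose combined with five library-drug doses (not always all listed) spaced in √10 steps. Five days later, one step fixed the cells and stained their nuclei (final 0.05% Triton X-100, 1% formaldehyde, 1 ug/ml Hoechst), and nuclei were counted on 4× images. Relative viability is the nuclei count in treated wells divided by the count in vehicle wells, and each value is the median of duplicate plates.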

[2] = system: 201T
Summary of the method: as §1

[3] = system: NCI-H1437
Summary of the method: as §1

[4] = system: CAL-12T
Summary of the method: as §1

[5] = system: SW 900
Summary of the method: as §1

[6] = system: NCI-H727
Summary of the method: as §1

[7] = system: NCI-H460
Summary of the method: as §1

[8] = system: NCI-H1650
Summary of the method: as §1

[9] = system: NCI-H2170
Summary of the method: as §1

[10] = system: HARA
Summary of the method: as §1

[11] = system: NCI-H2009
Summary of the method: as §1

[12] = system: NCI-H3122
Summary of the method: as §1

[13] = system: NCI-H1666
Summary of the method: as §1

[14] = system: EKVX
Summary of the method: as §1

[15] = system: HCC-366
Summary of the method: as §1

[16] = system: COR-L 105
Summary of the method: as §1

[17] = system: LK-2
Summary of the method: as §1

[18] = system: BEN
Summary of the method: as §1

[19] = system: LOU-NH91
Summary of the method: as §1

[20] = system: NCI-H441
Summary of the method: as §1

[21] = system: PC-14
Summary of the method: as §1

[22] = system: NCI-H661
Summary of the method: as §1

In the case of `O=c1cc(-c2cccc3c2Sc2ccccc2S3)oc(N2CCOCC2)c1` + Cc1cc(Nc2cc(N3CCN(C)CC3)nc(Sc3ccc(NC(=O)C4CC4)cc3)n2)n[nH]1 [Tozasertib] (partner 0.1 µM), the relative viability ([1]; first compound 0.08 µM) is reported as 0.184, the relative viability ([1]; first compound 0.253 µM) is reported as 0.203 and the relative viability ([1]; first compound 0.8 µM) is reported as 0.158. The relative viability ([1]; first compound 2.53 µM) was 0.181, the relative viability ([1]; first compound 8 µM) was 0.156 and the relative viability ([2]; first compound 0.08 µM) was 0.945. The relative viability ([2]; first compound 0.253 µM) was 0.982, the relative viability ([2]; first compound 0.8 µM) was 1.04 and the relative viability ([2]; first compound 2.53 µM) was 0.923. The relative viability ([2]; first compound 8 µM) was 0.753, the relative viability ([3]; first compound 0.08 µM) was 0.385 and the relative viability ([3]; first compound 0.253 µM) was 0.477. The relative viability ([3]; first compound 0.8 µM) was 0.43, the relative viability ([3]; first compound 2.53 µM) was 0.381 and the relative viability ([3]; first compound 8 µM) was 0.435. It also gave a relative viability ([4]; first compound 0.08 µM) of 0.296, a relative viability ([4]; first compound 0.253 µM) of 0.292 and a relative viability ([4]; first compound 0.8 µM) of 0.32. For the same molecule, the relative viability ([4]; first compound 2.53 µM) was 0.232, the relative viability ([4]; first compound 8 µM) was 0.224 and the relative viability ([5]; first compound 0.08 µM) was 0.754. It also gave a relative viability ([5]; first compound 0.253 µM) of 0.543, a relative viability ([5]; first compound 0.8 µM) of 0.433 and a relative viability ([5]; first compound 2.53 µM) of 0.486. For the same molecule, the relative viability ([5]; first compound 8 µM) was 0.5, the relative viability ([6]; first compound 0.08 µM) was 0.656 and the relative viability ([6]; first compound 0.253 µM) was 0.633. It also gave a relative viability ([6]; first compound 0.8 µM) of 0.609, a relative viability ([6]; first compound 2.53 µM) of 0.535 and a relative viability ([6]; first compound 8 µM) of 0.668. For the same molecule, the relative viability ([7]; first compound 0.08 µM) was 0.453, the relative viability ([7]; first compound 0.253 µM) was 0.364 and the relative viability ([7]; first compound 0.8 µM) was 0.147. For the same molecule, the relative viability ([7]; first compound 2.53 µM) was 0.257, the relative viability ([7]; first compound 8 µM) was 0.166 and the relative viability ([8]; first compound 0.08 µM) was 0.471. The relative viability ([8]; first compound 0.253 µM) was 0.458, the relative viability ([8]; first compound 0.8 µM) was 0.392 and the relative viability ([8]; first compound 2.53 µM) was 0.294. For the same molecule, the relative viability ([8]; first compound 8 µM) was 0.326, the relative viability ([9]; first compound 0.08 µM) was 0.78 and the relative viability ([9]; first compound 0.253 µM) was 0.739. The relative viability ([9]; first compound 0.8 µM) was 0.894, the relative viability ([9]; first compound 2.53 µM) was 0.715 and the relative viability ([9]; first compound 8 µM) was 0.676. The relative viability ([10]; first compound 0.08 µM) was 0.099, the relative viability ([10]; first compound 0.253 µM) was 0.0933 and the relative viability ([10]; first compound 0.8 µM) was 0.112. For the same molecule, the relative viability ([10]; first compound 2.53 µM) was 0.133, the relative viability ([10]; first compound 8 µM) was 0.0897 and the relative viability ([11]; first compound 0.08 µM) was 0.74. It also gave a relative viability ([11]; first compound 0.253 µM) of 0.725, a relative viability ([11]; first compound 0.8 µM) of 0.8 and a relative viability ([11]; first compound 2.53 µM) of 0.737. The relative viability ([11]; first compound 8 µM) was 0.578, the relative viability ([12]; first compound 0.08 µM) was 0.488 and the relative viability ([12]; first compound 0.253 µM) was 0.404. The relative viability ([12]; first compound 0.8 µM) was 0.355, the relative viability ([12]; first compound 2.53 µM) was 0.424 and the relative viability ([12]; first compound 8 µM) was 0.479. It also gave a relative viability ([13]; first compound 0.08 µM) of 0.612, a relative viability ([13]; first compound 0.253 µM) of 0.603 and a relative viability ([13]; first compound 0.8 µM) of 0.625. The relative viability ([13]; first compound 2.53 µM) was 0.539, the relative viability ([13]; first compound 8 µM) was 0.615 and the relative viability ([14]; first compound 0.08 µM) was 0.517. For the same molecule, the relative viability ([14]; first compound 0.253 µM) was 0.376, the relative viability ([14]; first compound 0.8 µM) was 0.451 and the relative viability ([14]; first compound 2.53 µM) was 0.377. For the same molecule, the relative viability ([14]; first compound 8 µM) was 0.412, the relative viability ([15]; first compound 0.08 µM) was 0.144 and the relative viability ([15]; first compound 0.253 µM) was 0.367. The relative viability ([15]; first compound 0.8 µM) was 0.093, the relative viability ([15]; first compound 2.53 µM) was 0.0682 and the relative viability ([15]; first compound 8 µM) was 0.0642. For the same molecule, the relative viability ([16]; first compound 0.08 µM) was 0.319, the relative viability ([16]; first compound 0.253 µM) was 0.357 and the relative viability ([16]; first compound 0.8 µM) was 0.32. The relative viability ([16]; first compound 2.53 µM) was 0.363, the relative viability ([16]; first compound 8 µM) was 0.414 and the relative viability ([17]; first compound 0.08 µM) was 0.184. For the same molecule, the relative viability ([17]; first compound 0.253 µM) was 0.165, the relative viability ([17]; first compound 0.8 µM) was 0.176 and the relative viability ([17]; first compound 2.53 µM) was 0.162. It also gave a relative viability ([17]; first compound 8 µM) of 0.16, a relative viability ([18]; first compound 0.08 µM) of 0.724 and a relative viability ([18]; first compound 0.253 µM) of 0.487. It also gave a relative viability ([18]; first compound 0.8 µM) of 0.423, a relative viability ([18]; first compound 2.53 µM) of 0.456 and a relative viability ([18]; first compound 8 µM) of 0.617. It also gave a relative viability ([19]; first compound 0.08 µM) of 0.652, a relative viability ([19]; first compound 0.253 µM) of 0.678 and a relative viability ([19]; first compound 0.8 µM) of 0.638. It also gave a relative viability ([19]; first compound 2.53 µM) of 0.568, a relative viability ([19]; first compound 8 µM) of 0.679 and a relative viability ([20]; first compound 0.08 µM) of 0.686. It also gave a relative viability ([20]; first compound 0.253 µM) of 0.693, a relative viability ([20]; first compound 0.8 µM) of 0.793 and a relative viability ([20]; first compound 2.53 µM) of 0.598. It also gave a relative viability ([20]; first compound 8 µM) of 0.632, a relative viability ([21]; first compound 0.08 µM) of 0.594 and a relative viability ([21]; first compound 0.253 µM) of 0.572. For the same molecule, the relative viability ([21]; first compound 0.8 µM) was 0.548, the relative viability ([21]; first compound 8 µM) was 0.554 and the relative viability ([22]; first compound 0.08 µM) was 0.357. The relative viability ([22]; first compound 0.253 µM) was 0.357, the relative viability ([22]; first compound 0.8 µM) was 0.351 and the relative viability ([22]; first compound 2.53 µM) was 0.339. For the same molecule, the relative viability ([22]; first compound 8 µM) was 0.353.
